Data reported in patent publication EP1970046A1, “Use of purine and purine derivatives for treating hair” (priority 2007, dated 2008).
Where two headings read alike, the source gives them in different places.

How the values were obtained:
Format in all cases: cell-based
KGF [1] = test: KGF release from organotypic hair follicle cell cultures (ELISA); conditions: organotypische Haarfollikelzellkulturen
Source text: (§1) Hepatocyte Growth Factor (HGF) und Keratinocyte Growth Factor (KGF) sind wichtige Wachstumsfaktoren, die von der dermalen Papille ausgeschüttet werden, um die Proliferation der Haarschaftkeratinozyten, die für die Synthese der Haarkeratine verantwortlich sind, zu steuern. Sie sind außerdem charakteristische Marker für die Anagenphase, in der auch die Keratinsynthese maximal ist. Darüber hinaus ist zu beachten, dass bei der Haaralterung das Proliferationsvermögen der Haarfollikelzellen abnimmt. Die Ausschüttung von HGF sowie KGF kann mit Hilfe von kommerziell erhältlichen ELISA-Kits quantifiziert werden.
(§2) Dazu werden organotypische Haarfollikelzellkulturn über 72h mit Theophyllin inkubiert und die Konzentration der Wachstumsfaktoren im Medium in beschriebener Weise bestimmt. Tabelle 2: Relative Ausschüttung von HGF und KGF in [%] nach Behandlung des organotypischen Haarfollikelzellkulturen im Vergleich zu unbehandelten Kontrollen.

KGF [2] = test: KGF release from dermal papilla cells (ELISA); conditions: dermale Papillenzellen
Source text: Der Keratinozyten Wachstumsfaktor Factor (KGF) Ist ein äußerst wichtiger Regulator des Haars. Bei einer potentiell wachstumsfördernden und das Haar stärkenden Aktivsubstanz kann von einer Steigerung der ins Medium ausgeschütteten Faktoren ausgegangen werden. Die Ausschüttung von KGF kann mit Hilfe von kommerziell erhältlichen ELISA-Kits quantifiziert werden. Dazu wurden die dermalen Papillenzellen über 24 Stunden mit Theophyllin inkubiert und die Konzentration des Wachstumsfaktors im Medium in beschriebener Weise quantifiziert. Tabelle 1: Relative Ausschüttung von KGF in [%] nach Behandlung der dermalen Papillenzellen im Vergleich zur unbehandelten Kontrollen.

hhb6 [3] = test: cells; conditions: read-out: Haarkeratinexpression hhb6 Mittelwert
Source text: (§3) Zur Durchführung der PCR wird zunächst mit Hilfe des RNeasy Mini Kits der Fa. Qiagen die RNA aus ORS-Keratinozyten isoliert und mittels reverser Transkription in cDNA umgeschrieben. Bei der anschließenden PCR Reaktion, die mit Hilfe genspezifischer Primer für die jeweiligen haarrelevanten Gene durchgeführt wird und die der Amplifikation der gesuchten Genabschnitte dient, wird die Bildung der PCR-Produkte online über ein Fluoreszenzsignal detektiert. Das Fluoreszenzsignal ist dabei proportional zur Menge des gebildeten PCR-Produktes. Je stärker die Expression eines bestimmten Gens Ist, desto größer Ist die Menge an gebildetem PCR-Produkt und um so höher ist das Fluoreszenzsignal. Zur Quantifizierung der Genexpression wird die unbehandelte Kontrolle gleich 1 gesetzt und die Expression der zu bestimmenden Gene darauf bezogen (x-fache Expression). Dabei werden Werte, die größer/gleich der 2fachen Expression oder kleiner/gleich der 0.5fachen Expression der unbehandelten Kontrolle sind als signifikant differentiell exprimiert eingestuft. Werte, die größer/gleich der 1,6fachen Expression oder kieiner/gleich der 0.66fachen Expression der unbehandelten Kontrolle sind als tendenziell differentiell exprimiert eingestuft. Die Ergebnisse sind in Tabelle 3 zusammengefasst. Tabelle 3: Haarkeratinexpression nach Behandlung von ORS-Keratinozyten in Zellkulturen im Vergleich zur unbehandelten Kontrolle.
(§4) Die Aktivierung der Keratinsynthese nach Applikation von Theophyllin wurde zusätzlich mit Hilfe organotypischer Haarfollikelzelikulturen untersucht, in denen verschiedene Zellen des Haarfollikels miteinander interagieren können. Die Untersuchungen erfolgten mit dem in Beispiel 3 erläuterten Verfahren der quantitativen Reverse Transkription Polymerase Kettenreaktion. Die Ergebnisse sind in Tabelle 4 zusammengefasst. Tabelle 4: Haarkeratinexpression nach Behandlung mit Theophyllin in organotpischen Haarfollikelzellkulturen im Vergleich zur unbehandelten Kontrolle.

hha3 [4] = test: cells; conditions: read-out: Haarkeratinexpression hha3 Mittelwert
Source text: as §3, §4

hha4 [5] = test: cells; conditions: read-out: Haarkeratinexpression hha4 Mittelwert
Source text: as §3, §4

HGF = HGF release from organotypic hair follicle cell cultures (ELISA); conditions: organotypische Haarfollikelzellkulturen
Source text: as §1, §2

hha1 = test: cells; conditions: Keratinocyte, read-out: Haarkeratinexpression hha1 Mittelwert
Procedure: (§5) Zur Bestimmung des Einflusses von Theophyllin auf die Expression von Haarkeratinen wurde die differentielle Genexpression mittels quantitatitiver RT-PCR bestimmt. Nach Anzucht der Keratinozyten der äusseren Wurzelscheide (ORS-Keratinozyten) wurden diese für 3, 6 oder 24 h mit Theophyllin in Konzentration von 1.10 und 100 µM inkubiert.
as §3

hhb6 [6] = test: cells; conditions: Keratinocyte, read-out: Haarkeratinexpression hhb6 Mittelwert
Procedure: as §5, §3

hha3 [7] = test: cells; conditions: Keratinocyte, read-out: Haarkeratinexpression hha3 Mittelwert
Procedure: as §5, §3

hha6 = test: cells; conditions: Keratinocyte, read-out: Haarkeratinexpression hha6 Mittelwert
Procedure: as §5, §3

hha4 [8] = test: cells; conditions: Keratinocyte, read-out: Haarkeratinexpression hha4 Mittelwert
Procedure: as §5, §3

In the case of Cn1c(=O)c2[nH]cnc2n(C)c1=O [Theophyllin], the “Freisetzung von KGF” value (KGF [1]; 500 µM, result in words) is reported as “tendenziell erhöhten Freisetzung”, the activity at 500 µM (KGF [1]; 72h, untreated = 100 (35), spread in brackets, read-out: Relative Ausschüttung von KGF Mittelwert) is reported as 144% and the activity at 1 µM (KGF [2]; 24 h, 24 Stunden, 1µM, untreated control = 100, read-out: Relative Ausschüttung von KGF Mittelwert) is reported as 121%. The activity at 10 µM (KGF [2]; 24 h, 24 Stunden, 10µM, untreated control = 100, read-out: Relative Ausschüttung von KGF Mittelwert) was 135%, the activity at 100 µM (KGF [2]; 24 h, 24 Stunden, 100µM, untreated control = 100, read-out: Relative Ausschüttung von KGF Mittelwert) was 161% and the “Freisetzung von KGF” value (KGF [2]; result in words) was “signifikant erhöhten Freisetzung”. For the same compound, the fold induction at 10 µM (hhb6 [3]; 6 h) was 1.28, the fold induction at 100 µM (hhb6 [3]; 6 h) was 2.06 and the fold induction at 10 µM (hhb6 [3]; 24 h) was 1.81. For the same compound, the fold induction at 100 µM (hhb6 [3]; 24 h) was 1.68, the fold induction at 10 µM (hha3 [4]; 6 h) was 0.76 and the fold induction at 100 µM (hha3 [4]; 6 h) was 0.76. The fold induction at 10 µM (hha3 [4]; 24 h) was 2.27, the fold induction at 100 µM (hha3 [4]; 24 h) was 3 and the fold induction at 10 µM (hha4 [5]; 6 h) was 0.91. The fold induction at 100 µM (hha4 [5]; 6 h) was 1.56, the fold induction at 10 µM (hha4 [5]; 24 h) was 2.08 and the fold induction at 100 µM (hha4 [5]; 24 h) was 1.88. For the same compound, the activity at 500 µM (HGF; HGF, 72h, untreated = 100 (14), spread in brackets, read-out: Relative Ausschüttung von HGF Mittelwert) was 144%, the “Freisetzung des Hepatozyten Wachstumsfaktor (HGF)” value (HGF; 500 µM, result in words) was “erhöhte Freisetzung” and the fold induction at 1 µM (hha1; 3 h) was 0.73. For the same compound, the fold induction at 10 µM (hha1; 3 h) was 1.18, the fold induction at 100 µM (hha1; 3 h) was 1.38 and the fold induction at 1 µM (hha1; 6 h) was 0.9. For the same compound, the fold induction at 10 µM (hha1; 6 h) was 0.92, the fold induction at 100 µM (hha1; 6 h) was 1.22 and the fold induction at 1 µM (hha1; 24 h) was 1.3. It also gave a fold induction at 10 µM (hha1; 24 h) of 1.4, a fold induction at 100 µM (hha1; 24 h) of 2.49 and a fold induction at 1 µM (hhb6 [6]; 3 h) of 1.09. The fold induction at 10 µM (hhb6 [6]; 3 h) was 1.12, the fold induction at 100 µM (hhb6 [6]; 3 h) was 1.78 and the fold induction at 1 µM (hhb6 [6]; 6 h) was 0.8. The fold induction at 10 µM (hhb6 [6]; 6 h) was 0.76, the fold induction at 100 µM (hhb6 [6]; 6 h) was 1.23 and the fold induction at 1 µM (hhb6 [6]; 24 h) was 1.34. The fold induction at 10 µM (hhb6 [6]; 24 h) was 1.28, the fold induction at 100 µM (hhb6 [6]; 24 h) was 1.98 and the fold induction at 1 µM (hha3 [7]; 3 h) was 0.86. It also gave a fold induction at 10 µM (hha3 [7]; 3 h) of 1.47, a fold induction at 100 µM (hha3 [7]; 3 h) of 2.47 and a fold induction at 1 µM (hha3 [7]; 6 h) of 0.8. The fold induction at 10 µM (hha3 [7]; 6 h) was 0.87, the fold induction at 100 µM (hha3 [7]; 6 h) was 1.25 and the fold induction at 1 µM (hha3 [7]; 24 h) was 1.2. The fold induction at 10 µM (hha3 [7]; 24 h) was 1.41, the fold induction at 100 µM (hha3 [7]; 24 h) was 2.75 and the fold induction at 1 µM (hha6; 3 h) was 0.45. The fold induction at 10 µM (hha6; 3 h) was 0.59, the fold induction at 100 µM (hha6; 3 h) was 0.28 and the fold induction at 1 µM (hha6; 6 h) was 1.12. The fold induction at 10 µM (hha6; 6 h) was 0.42, the fold induction at 100 µM (hha6; 6 h) was 0.57 and the fold induction at 1 µM (hha6; 24 h) was 3.19. The fold induction at 10 µM (hha6; 24 h) was 2.14, the fold induction at 100 µM (hha6; 24 h) was 1.61 and the fold induction at 1 µM (hha4 [8]; 3 h) was 0.83. For the same compound, the fold induction at 10 µM (hha4 [8]; 3 h) was 1.4, the fold induction at 100 µM (hha4 [8]; 3 h) was 2.41 and the fold induction at 1 µM (hha4 [8]; 6 h) was 0.81. For the same compound, the fold induction at 10 µM (hha4 [8]; 6 h) was 0.88, the fold induction at 100 µM (hha4 [8]; 6 h) was 1.31 and the fold induction at 1 µM (hha4 [8]; 24 h) was 1.27. It also gave a fold induction at 10 µM (hha4 [8]; 24 h) of 1.48 and a fold induction at 100 µM (hha4 [8]; 24 h) of 2.65.
